Data as given in the supplement of paper PMC12463676, “Small-molecule dissolution of stress granules by redox modulation benefits ALS models” (Nature Chemical Biology, 2025).

Tests used:
potassium arsenate = compound: O=[As]([O-])(O)O.[K+] [potassium arsenate]; experiment: thermal stability z-score vs DMSO; higher = more thermally stabilized by treatment; details: HeLa; arsenate concentration 1 mM
Procedure: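 Cellular thermal proteome profiling in HeLa cells treated with 1 mM arsenate for 1 h (DMSO pretreatment), heated to ten temperatures (37-66.3 °C). Soluble protein was quantified by TMT mass spectrometry relative to DMSO controls; the thermal stability score was transformed to a z-score; mean of n = 3 experiments.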

lipoamide = compound: NC(=O)CCCCC1CCSS1 [lipoamide]; experiment: as above; details: HeLa, lipoamide concentration 100 µM
Procedure: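 Cellular thermal proteome profiling in HeLa cells. Cells were treated with 100 µM lipoamide for 1 h, with or without 1 mM arsenate for a further 1 h, then heated to ten temperatures (37-66.3 °C), and soluble protein was quantified by TMT mass spectrometry relative to 0.1% DMSO controls. The thermal stability score (sum of log2 fold changes minus the abundance score) was transformed to a z-score; mean of n = 3 experiments.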

[1] = arsenate co-treatment: 1 mM arsenate 1 h
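Also: each temperature applied for 3 min, abundance score taken as mean log2 fold change at the two lowest temperatures, z-score obtained by mean subtraction and division by SD.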

PPM1G (UniProt O15355)
Chain of UniProt O15355 (O15355 whole entry): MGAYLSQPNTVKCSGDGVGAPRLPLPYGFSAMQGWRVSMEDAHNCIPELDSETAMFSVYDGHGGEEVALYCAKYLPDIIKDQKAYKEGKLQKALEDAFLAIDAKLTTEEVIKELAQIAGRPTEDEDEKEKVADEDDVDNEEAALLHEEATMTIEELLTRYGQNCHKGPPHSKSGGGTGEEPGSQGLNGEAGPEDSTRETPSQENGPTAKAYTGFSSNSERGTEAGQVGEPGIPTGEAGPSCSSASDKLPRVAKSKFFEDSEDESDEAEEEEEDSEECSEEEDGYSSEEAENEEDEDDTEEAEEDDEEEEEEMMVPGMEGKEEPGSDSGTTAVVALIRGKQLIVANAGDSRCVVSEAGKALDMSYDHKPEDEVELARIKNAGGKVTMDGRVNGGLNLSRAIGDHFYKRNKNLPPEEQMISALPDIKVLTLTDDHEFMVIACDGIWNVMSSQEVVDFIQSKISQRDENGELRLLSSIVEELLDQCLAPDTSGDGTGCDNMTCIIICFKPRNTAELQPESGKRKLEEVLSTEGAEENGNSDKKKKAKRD
thermal stability z-score (potassium arsenate): -0.0978
thermal stability z-score (lipoamide; [1]): 0.2
thermal stability z-score (lipoamide; arsenate co-treatment: none): 0.916

PPM1H (UniProt Q9ULR3)
thermal stability z-score (potassium arsenate): -1.01
thermal stability z-score (lipoamide; [1]): -1.19
thermal stability z-score (lipoamide; arsenate co-treatment: none): 0.00662

PPM1L (UniProt Q5SGD2)
thermal stability z-score (potassium arsenate): -0.192
thermal stability z-score (lipoamide; [1]): -0.022
thermal stability z-score (lipoamide; arsenate co-treatment: none): -0.095

PPME1 (UniProt Q9Y570)
thermal stability z-score (potassium arsenate): -1.09
thermal stability z-score (lipoamide; [1]): 0.126
thermal stability z-score (lipoamide; arsenate co-treatment: none): 0.00998

PPOX (UniProt P50336)
Chain of UniProt P50336 (P50336 whole entry): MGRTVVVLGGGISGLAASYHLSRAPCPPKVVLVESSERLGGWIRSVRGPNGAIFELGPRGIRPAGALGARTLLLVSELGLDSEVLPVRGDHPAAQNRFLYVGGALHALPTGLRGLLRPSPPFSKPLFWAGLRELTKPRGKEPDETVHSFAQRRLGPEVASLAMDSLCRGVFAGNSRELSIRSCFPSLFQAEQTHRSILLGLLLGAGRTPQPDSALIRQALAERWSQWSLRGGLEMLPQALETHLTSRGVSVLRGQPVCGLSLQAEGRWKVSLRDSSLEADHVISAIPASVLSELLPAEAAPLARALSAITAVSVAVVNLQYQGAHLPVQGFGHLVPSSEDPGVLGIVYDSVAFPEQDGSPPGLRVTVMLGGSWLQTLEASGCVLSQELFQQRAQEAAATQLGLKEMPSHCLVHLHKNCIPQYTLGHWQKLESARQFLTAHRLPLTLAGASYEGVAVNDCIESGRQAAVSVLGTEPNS
thermal stability z-score (potassium arsenate): 0.154
thermal stability z-score (lipoamide; [1]): 0.085
thermal stability z-score (lipoamide; arsenate co-treatment: none): 0.352

PPP1CA (UniProt P62136)
thermal stability z-score (potassium arsenate): -0.971
thermal stability z-score (lipoamide; [1]): 0.221
thermal stability z-score (lipoamide; arsenate co-treatment: none): -0.27

PPP1CB (UniProt P62140)
thermal stability z-score (potassium arsenate): 0.32
thermal stability z-score (lipoamide; [1]): 0.928
thermal stability z-score (lipoamide; arsenate co-treatment: none): -0.00317

PPP1CC (UniProt P36873)
thermal stability z-score (potassium arsenate): -0.446
thermal stability z-score (lipoamide; [1]): 0.0493
thermal stability z-score (lipoamide; arsenate co-treatment: none): -0.463

PPP1R2 (UniProt P41236)
Chain of UniProt P41236 (P41236 whole entry): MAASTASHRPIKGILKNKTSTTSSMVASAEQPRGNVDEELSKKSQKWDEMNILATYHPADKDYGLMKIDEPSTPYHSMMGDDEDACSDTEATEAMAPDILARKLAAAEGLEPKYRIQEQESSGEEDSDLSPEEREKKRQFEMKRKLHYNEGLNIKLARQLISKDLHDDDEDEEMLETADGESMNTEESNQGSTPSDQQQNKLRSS
thermal stability z-score (potassium arsenate): 0.183
thermal stability z-score (lipoamide; [1]): 0.658
thermal stability z-score (lipoamide; arsenate co-treatment: none): 0.619

PPP1R3D (UniProt O95685)
Chain of UniProt O95685 (O95685 whole entry): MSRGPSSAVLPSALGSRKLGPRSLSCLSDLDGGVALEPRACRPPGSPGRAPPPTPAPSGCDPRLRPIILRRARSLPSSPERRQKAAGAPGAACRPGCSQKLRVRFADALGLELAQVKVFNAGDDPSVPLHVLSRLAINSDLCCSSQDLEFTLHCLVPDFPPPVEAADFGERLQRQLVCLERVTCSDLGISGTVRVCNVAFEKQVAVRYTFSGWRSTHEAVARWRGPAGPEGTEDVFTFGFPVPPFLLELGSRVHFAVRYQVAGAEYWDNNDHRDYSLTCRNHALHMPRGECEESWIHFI
thermal stability z-score (potassium arsenate): -0.0465
thermal stability z-score (lipoamide; [1]): -0.601
thermal stability z-score (lipoamide; arsenate co-treatment: none): -0.982

PPP1R7 (UniProt Q15435)
Chain of UniProt Q15435 (Q15435 whole entry): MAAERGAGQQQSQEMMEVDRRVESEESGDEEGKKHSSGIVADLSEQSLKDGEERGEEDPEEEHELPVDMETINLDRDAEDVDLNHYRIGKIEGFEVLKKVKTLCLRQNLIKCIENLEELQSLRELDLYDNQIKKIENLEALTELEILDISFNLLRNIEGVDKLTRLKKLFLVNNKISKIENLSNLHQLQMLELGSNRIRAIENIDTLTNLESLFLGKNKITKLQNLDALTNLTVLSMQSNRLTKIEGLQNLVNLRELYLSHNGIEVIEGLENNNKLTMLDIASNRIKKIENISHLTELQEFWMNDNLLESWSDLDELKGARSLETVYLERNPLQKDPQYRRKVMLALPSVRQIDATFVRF
thermal stability z-score (potassium arsenate): -0.488
thermal stability z-score (lipoamide; [1]): 0.128
thermal stability z-score (lipoamide; arsenate co-treatment: none): -0.182

PPP1R8 (UniProt Q12972)
thermal stability z-score (potassium arsenate): 0.412
thermal stability z-score (lipoamide; [1]): 0.0226
thermal stability z-score (lipoamide; arsenate co-treatment: none): -0.142

PPP1R10 (UniProt Q96QC0)
thermal stability z-score (potassium arsenate): 0.332
thermal stability z-score (lipoamide; [1]): 0.565
thermal stability z-score (lipoamide; arsenate co-treatment: none): 0.255

PPP1R11 (UniProt O60927)
thermal stability z-score (potassium arsenate): -0.187
thermal stability z-score (lipoamide; [1]): 0.0148
thermal stability z-score (lipoamide; arsenate co-treatment: none): -0.832

PPP1R12A (UniProt O14974)
thermal stability z-score (potassium arsenate): 0.979
thermal stability z-score (lipoamide; [1]): 1.32
thermal stability z-score (lipoamide; arsenate co-treatment: none): 0.52

PPP1R13L (UniProt Q8WUF5)
thermal stability z-score (potassium arsenate): -0.21
thermal stability z-score (lipoamide; [1]): -0.367
thermal stability z-score (lipoamide; arsenate co-treatment: none): -0.132

PPP1R14B (UniProt Q96C90)
thermal stability z-score (potassium arsenate): -0.284
thermal stability z-score (lipoamide; [1]): 0.068
thermal stability z-score (lipoamide; arsenate co-treatment: none): 0.535

PPP1R15B (UniProt Q5SWA1)
thermal stability z-score (potassium arsenate): -0.0349
thermal stability z-score (lipoamide; [1]): -0.102
thermal stability z-score (lipoamide; arsenate co-treatment: none): -0.0322

PPP1R18 (UniProt Q6NYC8)
thermal stability z-score (potassium arsenate): 0.444
thermal stability z-score (lipoamide; [1]): -0.336
thermal stability z-score (lipoamide; arsenate co-treatment: none): 0.0646

PPP1R21 (UniProt Q6ZMI0)
thermal stability z-score (potassium arsenate): -0.839
thermal stability z-score (lipoamide; [1]): -0.328
thermal stability z-score (lipoamide; arsenate co-treatment: none): -0.0718

PPP1R37 (UniProt O75864)
thermal stability z-score (potassium arsenate): -0.0199
thermal stability z-score (lipoamide; [1]): -0.153
thermal stability z-score (lipoamide; arsenate co-treatment: none): -0.186

PPP2CA (UniProt P67775)
thermal stability z-score (potassium arsenate): -1.92
thermal stability z-score (lipoamide; [1]): 0.297
thermal stability z-score (lipoamide; arsenate co-treatment: none): 0.0726

PPP2CB (UniProt P62714)
thermal stability z-score (potassium arsenate): -0.474
thermal stability z-score (lipoamide; [1]): 0.564
thermal stability z-score (lipoamide; arsenate co-treatment: none): 0.167

PPP2R1A (UniProt P30153)
Chain of UniProt P30153 (P30153 whole entry): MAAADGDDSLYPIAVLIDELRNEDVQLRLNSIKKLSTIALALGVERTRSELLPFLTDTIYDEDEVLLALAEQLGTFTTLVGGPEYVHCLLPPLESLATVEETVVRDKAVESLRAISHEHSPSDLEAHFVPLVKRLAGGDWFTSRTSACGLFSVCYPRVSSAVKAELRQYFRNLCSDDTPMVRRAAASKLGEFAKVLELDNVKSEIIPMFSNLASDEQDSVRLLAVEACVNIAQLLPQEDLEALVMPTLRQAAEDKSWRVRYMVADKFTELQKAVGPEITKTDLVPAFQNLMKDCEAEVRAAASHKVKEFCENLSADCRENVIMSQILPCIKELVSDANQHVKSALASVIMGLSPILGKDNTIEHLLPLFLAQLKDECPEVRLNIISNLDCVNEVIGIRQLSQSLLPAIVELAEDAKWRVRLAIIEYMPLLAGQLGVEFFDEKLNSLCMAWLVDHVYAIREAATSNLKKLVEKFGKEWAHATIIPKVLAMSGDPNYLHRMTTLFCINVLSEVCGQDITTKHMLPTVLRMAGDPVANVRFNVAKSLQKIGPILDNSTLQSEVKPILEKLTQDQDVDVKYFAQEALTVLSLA
thermal stability z-score (potassium arsenate): -1.48
thermal stability z-score (lipoamide; [1]): 0.108
thermal stability z-score (lipoamide; arsenate co-treatment: none): 0.121

PPP2R1B (UniProt P30154)
thermal stability z-score (potassium arsenate): 0.107
thermal stability z-score (lipoamide; [1]): 0.0372
thermal stability z-score (lipoamide; arsenate co-treatment: none): -0.0931

PPP2R2A (UniProt P63151)
thermal stability z-score (potassium arsenate): -0.49
thermal stability z-score (lipoamide; [1]): 0.294
thermal stability z-score (lipoamide; arsenate co-treatment: none): 0.531

PPP2R2D (UniProt Q66LE6)
thermal stability z-score (potassium arsenate): 0.0879
thermal stability z-score (lipoamide; [1]): -0.473
thermal stability z-score (lipoamide; arsenate co-treatment: none): -0.0425

PPP2R4 (UniProt Q15257)
Chain of UniProt Q15257 (Q15257 whole entry): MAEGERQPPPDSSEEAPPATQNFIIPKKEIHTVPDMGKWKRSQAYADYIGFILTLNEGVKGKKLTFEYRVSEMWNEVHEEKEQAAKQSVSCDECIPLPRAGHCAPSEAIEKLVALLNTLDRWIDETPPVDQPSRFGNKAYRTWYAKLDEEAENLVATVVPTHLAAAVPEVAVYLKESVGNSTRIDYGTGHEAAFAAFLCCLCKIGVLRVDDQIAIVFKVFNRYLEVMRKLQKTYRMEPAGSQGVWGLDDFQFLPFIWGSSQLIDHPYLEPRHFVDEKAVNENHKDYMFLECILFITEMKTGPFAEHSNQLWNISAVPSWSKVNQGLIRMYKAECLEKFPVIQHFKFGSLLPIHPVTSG
thermal stability z-score (potassium arsenate): -0.0643
thermal stability z-score (lipoamide; [1]): 0.108
thermal stability z-score (lipoamide; arsenate co-treatment: none): 0.233

PPP2R5A (UniProt Q15172)
thermal stability z-score (potassium arsenate): 0.703
thermal stability z-score (lipoamide; [1]): 0.468
thermal stability z-score (lipoamide; arsenate co-treatment: none): 0.527

PPP2R5C (UniProt Q13362)
thermal stability z-score (potassium arsenate): -0.0211
thermal stability z-score (lipoamide; [1]): 1.38
thermal stability z-score (lipoamide; arsenate co-treatment: none): 0.649

PPP2R5D (UniProt Q14738)
thermal stability z-score (potassium arsenate): 0.228
thermal stability z-score (lipoamide; [1]): -0.378
thermal stability z-score (lipoamide; arsenate co-treatment: none): -0.239

PPP2R5E (UniProt Q16537)
thermal stability z-score (potassium arsenate): 0.682
thermal stability z-score (lipoamide; [1]): 0.219
thermal stability z-score (lipoamide; arsenate co-treatment: none): 0.285

PPP3CA (UniProt Q08209)
thermal stability z-score (potassium arsenate): 0.275
thermal stability z-score (lipoamide; [1]): 1.25
thermal stability z-score (lipoamide; arsenate co-treatment: none): 0.912

PPP3CB (UniProt P16298)
thermal stability z-score (potassium arsenate): -0.199
thermal stability z-score (lipoamide; [1]): -0.386
thermal stability z-score (lipoamide; arsenate co-treatment: none): -2.04

PPP3R1 (UniProt P63098)
Chain of UniProt P63098 (P63098 whole entry, looked up): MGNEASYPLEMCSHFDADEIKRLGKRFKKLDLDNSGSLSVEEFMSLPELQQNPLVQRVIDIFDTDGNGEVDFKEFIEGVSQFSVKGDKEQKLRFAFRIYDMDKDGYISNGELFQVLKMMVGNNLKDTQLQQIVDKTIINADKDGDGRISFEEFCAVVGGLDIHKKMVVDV
thermal stability z-score (potassium arsenate): 0.32
thermal stability z-score (lipoamide; [1]): 0.0623
thermal stability z-score (lipoamide; arsenate co-treatment: none): 0.412

PPP4C (UniProt P60510)
thermal stability z-score (potassium arsenate): 0.166
thermal stability z-score (lipoamide; [1]): 0.813
thermal stability z-score (lipoamide; arsenate co-treatment: none): 0.205

PPP4R1 (UniProt Q8TF05)
thermal stability z-score (potassium arsenate): 0.0118
thermal stability z-score (lipoamide; [1]): 0.26
thermal stability z-score (lipoamide; arsenate co-treatment: none): 0.0864

PPP4R2 (UniProt Q9NY27)
thermal stability z-score (potassium arsenate): -0.136
thermal stability z-score (lipoamide; [1]): -0.326
thermal stability z-score (lipoamide; arsenate co-treatment: none): 0.221

PPP4R3A (UniProt Q6IN85)
Chain of UniProt Q6IN85 (Q6IN85 whole entry): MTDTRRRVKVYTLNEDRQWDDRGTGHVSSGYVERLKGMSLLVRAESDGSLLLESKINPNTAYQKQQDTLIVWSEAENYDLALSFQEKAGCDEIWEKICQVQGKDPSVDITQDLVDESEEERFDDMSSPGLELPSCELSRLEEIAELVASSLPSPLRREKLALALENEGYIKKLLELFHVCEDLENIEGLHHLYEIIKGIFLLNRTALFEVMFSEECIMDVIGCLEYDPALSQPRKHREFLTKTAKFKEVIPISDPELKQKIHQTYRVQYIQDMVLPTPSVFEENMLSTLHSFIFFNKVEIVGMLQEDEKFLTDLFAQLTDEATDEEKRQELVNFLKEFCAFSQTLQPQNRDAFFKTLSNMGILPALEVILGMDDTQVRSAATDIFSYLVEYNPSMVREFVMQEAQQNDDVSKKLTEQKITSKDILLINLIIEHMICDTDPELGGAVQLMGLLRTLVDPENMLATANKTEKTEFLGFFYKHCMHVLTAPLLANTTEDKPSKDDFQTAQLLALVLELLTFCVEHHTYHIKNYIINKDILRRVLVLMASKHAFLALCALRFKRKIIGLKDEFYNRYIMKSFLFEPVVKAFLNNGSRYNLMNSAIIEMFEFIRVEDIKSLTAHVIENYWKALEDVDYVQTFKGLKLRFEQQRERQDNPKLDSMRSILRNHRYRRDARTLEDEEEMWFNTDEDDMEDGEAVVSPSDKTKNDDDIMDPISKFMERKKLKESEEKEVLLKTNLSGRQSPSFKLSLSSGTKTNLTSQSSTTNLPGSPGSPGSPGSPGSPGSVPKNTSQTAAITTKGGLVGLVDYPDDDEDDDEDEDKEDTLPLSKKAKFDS
thermal stability z-score (potassium arsenate): -0.165
thermal stability z-score (lipoamide; [1]): 0.268
thermal stability z-score (lipoamide; arsenate co-treatment: none): 0.184

PPP4R3B (UniProt Q5MIZ7)
thermal stability z-score (potassium arsenate): -0.227
thermal stability z-score (lipoamide; [1]): -0.195
thermal stability z-score (lipoamide; arsenate co-treatment: none): -0.1

PPP5C (UniProt P53041)
Chain of UniProt P53041 (P53041 whole entry): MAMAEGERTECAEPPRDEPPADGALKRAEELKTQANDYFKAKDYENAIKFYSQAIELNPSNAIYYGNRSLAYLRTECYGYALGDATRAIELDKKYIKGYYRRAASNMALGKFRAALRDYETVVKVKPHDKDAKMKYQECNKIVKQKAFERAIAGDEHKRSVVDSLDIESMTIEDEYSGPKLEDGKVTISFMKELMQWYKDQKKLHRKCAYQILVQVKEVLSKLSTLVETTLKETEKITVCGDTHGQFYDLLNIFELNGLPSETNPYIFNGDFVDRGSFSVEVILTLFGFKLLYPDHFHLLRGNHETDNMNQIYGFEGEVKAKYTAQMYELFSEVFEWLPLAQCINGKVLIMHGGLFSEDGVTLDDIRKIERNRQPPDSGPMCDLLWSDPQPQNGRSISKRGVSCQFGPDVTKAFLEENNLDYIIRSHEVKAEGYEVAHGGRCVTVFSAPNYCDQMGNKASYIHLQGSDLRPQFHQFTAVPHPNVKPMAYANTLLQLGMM
thermal stability z-score (potassium arsenate): 0.649
thermal stability z-score (lipoamide; [1]): 0.859
thermal stability z-score (lipoamide; arsenate co-treatment: none): 0.0455

PPP6C (UniProt O00743)
thermal stability z-score (potassium arsenate): -0.409
thermal stability z-score (lipoamide; [1]): 0.512
thermal stability z-score (lipoamide; arsenate co-treatment: none): 0.089

PPP6R1 (UniProt Q9UPN7)
thermal stability z-score (potassium arsenate): -0.671
thermal stability z-score (lipoamide; [1]): -0.476
thermal stability z-score (lipoamide; arsenate co-treatment: none): -0.635

PPP6R2 (UniProt O75170)
thermal stability z-score (potassium arsenate): -0.937
thermal stability z-score (lipoamide; [1]): -0.348
thermal stability z-score (lipoamide; arsenate co-treatment: none): 0.143

PPP6R3 (UniProt Q5H9R7)
thermal stability z-score (potassium arsenate): 0.262
thermal stability z-score (lipoamide; [1]): 1.14
thermal stability z-score (lipoamide; arsenate co-treatment: none): 0.331

PPT1 (UniProt P50897)
Chain of UniProt P50897 (P50897 whole entry): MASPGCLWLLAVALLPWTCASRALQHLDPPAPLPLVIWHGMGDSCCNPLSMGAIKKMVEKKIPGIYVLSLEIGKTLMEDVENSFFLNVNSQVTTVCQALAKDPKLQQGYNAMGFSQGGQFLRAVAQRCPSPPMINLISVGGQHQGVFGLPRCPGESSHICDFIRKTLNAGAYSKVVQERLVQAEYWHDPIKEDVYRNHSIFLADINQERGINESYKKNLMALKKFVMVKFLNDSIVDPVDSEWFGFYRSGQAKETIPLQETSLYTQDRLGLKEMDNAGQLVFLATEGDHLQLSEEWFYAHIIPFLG
thermal stability z-score (potassium arsenate): -0.00594
thermal stability z-score (lipoamide; [1]): -0.494
thermal stability z-score (lipoamide; arsenate co-treatment: none): -0.324

PPTC7 (UniProt Q8NI37)
thermal stability z-score (potassium arsenate): 0.222
thermal stability z-score (lipoamide; [1]): -0.248
thermal stability z-score (lipoamide; arsenate co-treatment: none): -0.287

PPWD1 (UniProt Q96BP3)
thermal stability z-score (potassium arsenate): -0.656
thermal stability z-score (lipoamide; [1]): -0.218
thermal stability z-score (lipoamide; arsenate co-treatment: none): -0.513

PQBP1 (UniProt O60828)
thermal stability z-score (potassium arsenate): -0.0247
thermal stability z-score (lipoamide; [1]): 0.533
thermal stability z-score (lipoamide; arsenate co-treatment: none): -0.261

PRC1 (UniProt O43663)
thermal stability z-score (potassium arsenate): -0.601
thermal stability z-score (lipoamide; [1]): -0.144
thermal stability z-score (lipoamide; arsenate co-treatment: none): -0.106

PRCC (UniProt Q92733)
thermal stability z-score (potassium arsenate): 0.465
thermal stability z-score (lipoamide; [1]): 0.409
thermal stability z-score (lipoamide; arsenate co-treatment: none): -0.0293

PRCP (UniProt P42785)
thermal stability z-score (potassium arsenate): 0.42
thermal stability z-score (lipoamide; [1]): -0.242
thermal stability z-score (lipoamide; arsenate co-treatment: none): -0.33

PRDX2 (UniProt P32119)
Chain of UniProt P32119 (P32119 whole entry): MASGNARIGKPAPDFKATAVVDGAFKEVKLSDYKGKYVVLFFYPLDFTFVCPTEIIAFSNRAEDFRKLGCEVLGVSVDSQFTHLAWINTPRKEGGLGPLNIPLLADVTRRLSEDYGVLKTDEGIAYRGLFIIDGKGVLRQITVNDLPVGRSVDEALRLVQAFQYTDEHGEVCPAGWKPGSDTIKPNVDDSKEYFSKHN
thermal stability z-score (potassium arsenate): -0.431
thermal stability z-score (lipoamide; [1]): 0.0679
thermal stability z-score (lipoamide; arsenate co-treatment: none): 0.162

PRDX3 (UniProt P30048)
thermal stability z-score (potassium arsenate): -0.448
thermal stability z-score (lipoamide; [1]): 0.429
thermal stability z-score (lipoamide; arsenate co-treatment: none): 0.812

PRDX4 (UniProt Q13162)
thermal stability z-score (potassium arsenate): 0.674
thermal stability z-score (lipoamide; [1]): 0.155
thermal stability z-score (lipoamide; arsenate co-treatment: none): 0.76
